# Source: ChEMBL document CHEMBL2406981, “Novel pyrazoline amidoxime and their 1,2,4-oxadiazole analogues: synthesis and pharmacological screening” (Bioorg Med Chem Lett, 2013)
# Experiments:
# [1] = Antiinflammatory activity against heat-induced albumin denaturation at […] preincubated for 15 mins before heat induction by UV-vis spectrophotometer analysis; type: functional
# Aspergillus flavus [2] = experiment: Antimicrobial activity against Aspergillus flavus MTCC 873; type: functional
# Aspergillus niger [3] = experiment: Antimicrobial activity against Aspergillus niger MTCC 281; type: functional
# Shigella flexneri [4] = experiment: Antimicrobial activity against Shigella flexneri MTCC 1457; type: functional
# Escherichia coli [5] = experiment: Antimicrobial activity against Escherichia coli MTCC 724; type: functional
# Klebsiella pneumoniae [6] = experiment: Antimicrobial activity against Klebsiella pneumoniae MTCC 3384; type: functional
# Staphylococcus aureus [7] = experiment: Antimicrobial activity against Staphylococcus aureus MTCC 96; type: functional
# Bacillus cereus [8] = experiment: Antimicrobial activity against Bacillus cereus MTCC 8372; type: functional
# Aspergillus niger [9] = experiment: Antimicrobial activity against Aspergillus niger MTCC 281 at 50 ug/ml after 24 hrs by agar disc diffusion method; type: functional; details: MTCC 281, 24 h, read-out: DIZ
# Aspergillus niger [10] = experiment: Antimicrobial activity against Aspergillus niger MTCC 281 at 100 ug/ml after 24 hrs by agar disc diffusion method; type: functional; details: MTCC 281, 24 h, read-out: DIZ
# Aspergillus flavus [11] = experiment: Antimicrobial activity against Aspergillus flavus MTCC 873 at 100 ug/ml after 24 hrs by agar disc diffusion method; type: functional; details: MTCC 873, 24 h, read-out: DIZ
# Aspergillus flavus [12] = experiment: Antimicrobial activity against Aspergillus flavus MTCC 873 at 50 ug/ml after 24 hrs by agar disc diffusion method; type: functional; details: MTCC 873, 24 h, read-out: DIZ
# Shigella flexneri [13] = experiment: Antimicrobial activity against Shigella flexneri MTCC 1457 at 100 ug/ml after 24 hrs by agar disc diffusion method; type: functional; details: MTCC 1457, 24 h, read-out: DIZ
# Shigella flexneri [14] = experiment: Antimicrobial activity against Shigella flexneri MTCC 1457 at 50 ug/ml after 24 hrs by agar disc diffusion method; type: functional; details: MTCC 1457, 24 h, read-out: DIZ
# Klebsiella pneumoniae [15] = experiment: Antimicrobial activity against Klebsiella pneumoniae MTCC 3384 at 100 ug/ml after 24 hrs by agar disc diffusion method; type: functional; details: MTCC 3384, 24 h, read-out: DIZ
# Klebsiella pneumoniae [16] = experiment: Antimicrobial activity against Klebsiella pneumoniae MTCC 3384 at 50 ug/ml after 24 hrs by agar disc diffusion method; type: functional; details: MTCC 3384, 24 h, read-out: DIZ
# Escherichia coli [17] = experiment: Antimicrobial activity against Escherichia coli MTCC 724 at 100 ug/ml after 24 hrs by agar disc diffusion method; type: functional; details: MTCC 724, 24 h, read-out: DIZ
# Escherichia coli [18] = experiment: Antimicrobial activity against Escherichia coli MTCC 724 at 50 ug/ml after 24 hrs by agar disc diffusion method; type: functional; details: MTCC 724, 24 h, read-out: DIZ
# Staphylococcus aureus [19] = experiment: Antimicrobial activity against Staphylococcus aureus MTCC 96 at 100 ug/ml after 24 hrs by agar disc diffusion method; type: functional; details: MTCC 96, 24 h, read-out: DIZ
# Staphylococcus aureus [20] = experiment: Antimicrobial activity against Staphylococcus aureus MTCC 96 at 50 ug/ml after 24 hrs by agar disc diffusion method; type: functional; details: MTCC 96, 24 h, read-out: DIZ
# Bacillus cereus [21] = experiment: Antimicrobial activity against Bacillus cereus MTCC 8372 at 100 ug/ml after 24 hrs by agar disc diffusion method; type: functional; details: MTCC 8372, 24 h, read-out: DIZ
# [22] = Antioxidant activity against ferric chloride-induced lipid peroxidation using egg lecithin at 5 ug/ml after 1 hr; type: functional
# Bacillus cereus [23] = experiment: Antimicrobial activity against Bacillus cereus MTCC 8372 at 50 ug/ml after 24 hrs by agar disc diffusion method; type: functional; details: MTCC 8372, 24 h, read-out: DIZ
# [24] = Antioxidant activity against ferric chloride-induced lipid peroxidation using egg lecithin at 2.5 ug/ml after 1 hr; type: functional
# [25] = Antioxidant activity against ferric chloride-induced lipid peroxidation using egg lecithin at 1 ug/ml after 1 hr; type: functional
# [26] = Antioxidant activity against ferric chloride-induced lipid peroxidation using egg lecithin at 0.75 ug/ml after 1 hr; type: functional
# [27] = Antioxidant activity against ferric chloride-induced lipid peroxidation using egg lecithin at 0.5 ug/ml after 1 hr; type: functional
# [28] = Antioxidant activity against ferric chloride-induced lipid peroxidation using egg lecithin at 0.25 ug/ml after 1 hr; type: functional
# [29] = Antioxidant activity against ferric chloride-induced lipid peroxidation using egg lecithin at 0.1 ug/ml after 1 hr; type: functional
# [30] = Antioxidant activity against ferric chloride-induced lipid peroxidation using egg lecithin at 0.05 ug/ml after 1 hr; type: functional
# [31] = Antioxidant activity against ferric chloride-induced lipid peroxidation using egg lecithin at 0.01 ug/ml after 1 hr; type: functional
# [32] = Antioxidant activity against ferric chloride-induced lipid peroxidation using egg lecithin at 50 ug/ml after 1 hr; type: functional
# [33] = Antioxidant activity against ferric chloride-induced lipid peroxidation using egg lecithin at 100 ug/ml after 1 hr; type: functional
# [34] = Antioxidant activity against ferric chloride-induced lipid peroxidation using egg lecithin at 10 ug/ml after 1 hr; type: functional
# [35] = Antioxidant activity assessed as reducing power of ferric ion at 50 ug/ml after 20 mins; type: functional; design: scale not given: the % may be the effect or the level left
# [36] = Antioxidant activity assessed as reducing power of ferric ion at 100 ug/ml after 20 mins; type: functional; design: scale not given: the % may be the effect or the level left
# [37] = Antioxidant activity assessed as reducing power of ferric ion at 10 ug/ml after 20 mins; type: functional; design: scale not given: the % may be the effect or the level left
# [38] = test system: Radical scavenging activity; experiment: Antioxidant activity assessed as DPPH free radical scavenging activity at 50 ug/ml after 20 mins; type: functional
# [39] = test system: Radical scavenging activity; experiment: Antioxidant activity assessed as DPPH free radical scavenging activity at 100 ug/ml after 20 mins; type: functional
# [40] = test system: Radical scavenging activity; experiment: Antioxidant activity assessed as DPPH free radical scavenging activity at 10 ug/ml after 20 mins; type: functional
# [41] = Ratio of vitamin-E to compound for ferric chloride-induced lipid peroxidation; type: physicochemical
Compound,inhibition [1],MIC (Aspergillus flavus [2]),MIC (Aspergillus niger [3]),MIC (Shigella flexneri [4]),MIC (Escherichia coli [5]),MIC (Klebsiella pneumoniae [6]),MIC (Staphylococcus aureus [7]),MIC (Bacillus cereus [8]),zone of inhibition at 50 µg/mL (Aspergillus niger [9]),zone of inhibition at 100 µg/mL (Aspergillus niger [10]),zone of inhibition at 100 µg/mL (Aspergillus flavus [11]),zone of inhibition at 50 µg/mL (Aspergillus flavus [12]),zone of inhibition at 100 µg/mL (Shigella flexneri [13]),zone of inhibition at 50 µg/mL (Shigella flexneri [14]),zone of inhibition at 100 µg/mL (Klebsiella pneumoniae [15]),zone of inhibition at 50 µg/mL (Klebsiella pneumoniae [16]),zone of inhibition at 100 µg/mL (Escherichia coli [17]),inhibition [32],inhibition [33],inhibition [34],other results
N/C(=N\O)C1CC(c2ccccc2)=NN1c1ccccc1 (centres undefined),61.7%,30 µg/mL,50 µg/mL,40 µg/mL,50 µg/mL,40 µg/mL,40 µg/mL,50 µg/mL,2 mm,3 mm,4 mm,4 mm,10 mm,3 mm,8 mm,2 mm,7 mm,15%,14%,32%,zone of inhibition at 50 µg/mL (Escherichia coli [18]): 2 mm; zone of inhibition at 100 µg/mL (Staphylococcus aureus [19]): 6 mm; zone of inhibition at 50 µg/mL (Staphylococcus aureus [20]): 3 mm; zone of inhibition at 100 µg/mL (Bacillus cereus [21]): 3 mm; inhibition [22]: 21%; zone of inhibition at 50 µg/mL (Bacillus cereus [23]): 2 mm; inhibition [24]: 14.7%; inhibition [25]: 9.5%; inhibition [26]: 8.5%; inhibition [27]: 8.2%; inhibition [28]: 8%; inhibition [29]: 8.4%; inhibition [30]: 1.3%; inhibition [31]: 0.7%; Activity [35]: 12%; Activity [36]: 56%; Activity [37]: 8%; Activity [38]: 28%; Activity [39]: 51%; Activity [40]: 16%
VITAMIN E,,,,,,,,,,,,,,,,,,62%,92%,47%,inhibition [22]: 26%; inhibition [24]: 17%; inhibition [25]: 9.3%; inhibition [26]: 7.7%; inhibition [27]: 6%; inhibition [28]: 4.1%; inhibition [29]: 3.4%; inhibition [30]: 2%; inhibition [31]: 1.2%
N/C(=N\O)C1CC(c2ccc(O)cc2)=NN1c1ccccc1 (centres undefined),63.5%,35 µg/mL,15 µg/mL,10 µg/mL,15 µg/mL,20 µg/mL,50 µg/mL,40 µg/mL,10 mm,14 mm,12 mm,5 mm,20 mm,12 mm,12 mm,8 mm,16 mm,18%,20%,12%,zone of inhibition at 50 µg/mL (Escherichia coli [18]): 10 mm; zone of inhibition at 100 µg/mL (Staphylococcus aureus [19]): 8 mm; zone of inhibition at 50 µg/mL (Staphylococcus aureus [20]): 2 mm; zone of inhibition at 100 µg/mL (Bacillus cereus [21]): 3 mm; zone of inhibition at 50 µg/mL (Bacillus cereus [23]): 3 mm; Ratio [41]: 3; Activity [35]: 34%; Activity [36]: 79%; Activity [37]: 12%; Activity [38]: 41%; Activity [39]: 76%; Activity [40]: 24%
